Measurements published in ChEMBL document CHEMBL3421611, “New quinolone- and 1,8-naphthyridine-3-carboxamides as selective CB2 receptor agonists with anticancer and immuno-modulatory activity” (Eur J Med Chem, 2015).
pEC50, pIC50, pKi: −log10 of the molar value. The source made the active and inactive calls. No cut-off for these calls is given here.

Key:
Cannabinoid receptor 1 [1] = biological target: Cannabinoid receptor 1 (Homo sapiens, UniProt P21554); experiment: Displacement of [3H]-CP-55940 from recombinant human CB1 receptor overexpressed in HEK293 cell membranes after 90 mins
Chain of Cannabinoid receptor 1 (Homo sapiens, UniProt P21554) (P21554 whole entry): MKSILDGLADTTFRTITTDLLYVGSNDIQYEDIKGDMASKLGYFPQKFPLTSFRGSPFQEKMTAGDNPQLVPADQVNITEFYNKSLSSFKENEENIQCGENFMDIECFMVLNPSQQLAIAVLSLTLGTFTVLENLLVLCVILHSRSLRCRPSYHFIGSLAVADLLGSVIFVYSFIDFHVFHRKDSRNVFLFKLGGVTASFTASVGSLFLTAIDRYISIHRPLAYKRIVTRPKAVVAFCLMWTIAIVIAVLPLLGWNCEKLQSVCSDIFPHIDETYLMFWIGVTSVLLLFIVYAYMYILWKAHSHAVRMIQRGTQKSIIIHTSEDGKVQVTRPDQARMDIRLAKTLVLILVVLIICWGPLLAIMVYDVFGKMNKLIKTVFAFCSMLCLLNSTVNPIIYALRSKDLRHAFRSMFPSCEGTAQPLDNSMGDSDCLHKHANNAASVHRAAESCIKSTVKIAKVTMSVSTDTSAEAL

Cannabinoid receptor 2 [2] = biological target: T1, Cannabinoid receptor 2 (Homo sapiens, UniProt P34972); experiment: Displacement of [3H]-CP-55940 from recombinant human CB2 receptor overexpressed in HEK293 cell membranes after 90 mins
T1 sequence (P34972 whole entry): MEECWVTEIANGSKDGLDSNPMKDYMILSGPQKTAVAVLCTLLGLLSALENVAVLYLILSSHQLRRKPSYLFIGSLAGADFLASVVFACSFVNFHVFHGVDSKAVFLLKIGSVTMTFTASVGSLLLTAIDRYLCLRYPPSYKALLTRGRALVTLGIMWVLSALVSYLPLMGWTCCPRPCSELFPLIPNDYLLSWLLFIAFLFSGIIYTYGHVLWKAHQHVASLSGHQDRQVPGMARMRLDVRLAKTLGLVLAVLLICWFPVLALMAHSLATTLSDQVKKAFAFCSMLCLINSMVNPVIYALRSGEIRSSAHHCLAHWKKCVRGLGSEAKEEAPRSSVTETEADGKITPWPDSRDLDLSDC

Homo sapiens = species on record: Homo sapiens; experiment: Selectivity index, ratio of Ki for recombinant human CB1 receptor to Ki for recombinant human CB2 receptor
Cannabinoid receptor 2 [3] = biological target: T1, Cannabinoid receptor 2; experiment: Agonist activity at human CB2 receptor transfected in CHO cell membranes after 90 mins by [35S]-GTPgammaS assay; assay type: functional
PBMC [4] = experiment: Antiinflammatory activity in human myelin basic protein activated PBMC isolated from healthy human assessed as inhibition of phosphorylated Cox-2 expression after 6 days by Western blot analysis; assay type: functional, cell-based
PBMC [5] = experiment: Antiinflammatory activity in human myelin basic protein activated PBMC isolated from multiple sclerosis patient assessed as inhibition of phosphorylated Akt expression at 10 uM after 6 days by Western blot analysis; assay type: functional, cell-based
PBMC [6] = experiment: Antiinflammatory activity in human myelin basic protein activated PBMC isolated from multiple sclerosis patient assessed as inhibition of phosphorylated Cox-2 expression at 10 uM after 6 days by Western blot analysis; assay type: functional, cell-based
CHO = experiment: Effect on mock-transfected CHO cell membranes after 90 mins by [35S]-GTPgammaS assay; assay type: functional; details: Cricetulus griseus
[7] = biological target: Cannabinoid receptor 1 (Rattus norvegicus) (UniProt P20272); experiment: Modulation of CB1 receptor-mediated G protein activity in rat cerebellar membranes at < 10 uM after 90 mins by [35S]-GTPgammaS assay; assay type: functional, cell membranes; details: Cerebellum, Membrane
Chain of Cannabinoid receptor 1 (Rattus norvegicus) (P20272 whole entry): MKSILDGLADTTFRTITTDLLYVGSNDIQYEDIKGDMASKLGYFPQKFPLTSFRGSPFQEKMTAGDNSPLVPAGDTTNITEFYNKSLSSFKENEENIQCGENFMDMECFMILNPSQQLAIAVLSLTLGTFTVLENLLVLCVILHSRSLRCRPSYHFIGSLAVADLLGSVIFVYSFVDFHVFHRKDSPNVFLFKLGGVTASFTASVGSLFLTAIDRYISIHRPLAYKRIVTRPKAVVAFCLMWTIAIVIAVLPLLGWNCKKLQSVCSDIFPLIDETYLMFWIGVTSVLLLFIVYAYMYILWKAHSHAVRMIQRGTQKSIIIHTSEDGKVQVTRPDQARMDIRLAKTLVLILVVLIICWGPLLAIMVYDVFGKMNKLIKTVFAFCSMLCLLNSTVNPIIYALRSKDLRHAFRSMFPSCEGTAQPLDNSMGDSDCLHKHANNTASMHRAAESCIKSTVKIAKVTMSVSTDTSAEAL

LNCaP [8] = experiment: Cytotoxicity against human LNCAP cells expressing CB2 receptor assessed as decrease in cell viability after 72 hrs by neutral red uptake and accumulation assay
LNCaP [9] = experiment: Cytotoxicity against human LNCAP cells expressing CB2 receptor assessed as decrease in cell viability at 2 uM after 72 hrs by neutral red uptake and accumulation assay in presence of CB2 receptor antagonist MC21 relative to control; assay type: functional, cell-based
PBMC [10] = experiment: Immunomodulatory activity in human myelin basic protein activated PBMC isolated from healthy human assessed as decrease in cell proliferation after 6 days by trypan blue staining-based haemocytometric analysis relative to control; assay type: functional
PBMC [11] = experiment: Immunomodulatory activity in human myelin basic protein activated PBMC isolated from multiple sclerosis patient assessed as decrease in cell proliferation after 6 days by trypan blue staining-based haemocytometric analysis relative to control; assay type: functional
PBMC [12] = experiment: Immunomodulatory activity in human myelin basic protein activated PBMC isolated from healthy human assessed as inhibition of CD54 expression after 6 days by flow cytometric analysis; assay type: functional, cell-based
PBMC [13] = experiment: Immunomodulatory activity in human myelin basic protein activated PBMC isolated from healthy human assessed as inhibition of CD69 expression after 6 days by flow cytometric analysis; assay type: functional, cell-based
PBMC [14] = experiment: Immunomodulatory activity in human myelin basic protein activated PBMC isolated from healthy human assessed as inhibition of CD25 expression after 6 days by flow cytometric analysis; assay type: functional, cell-based
PBMC [15] = experiment: Immunomodulatory activity in human myelin basic protein activated PBMC isolated from healthy human assessed as inhibition of CD62 expression after 6 days by flow cytometric analysis; assay type: functional, cell-based
PBMC [16] = experiment: Immunomodulatory activity in human myelin basic protein activated PBMC isolated from healthy human assessed as inhibition of CD49d expression after 6 days by flow cytometric analysis; assay type: functional, cell-based
PBMC [17] = experiment: Immunomodulatory activity in human myelin basic protein activated PBMC isolated from multiple sclerosis patient assessed as inhibition of CD54 expression at 10 uM after 6 days by flow cytometric analysis; assay type: functional, cell-based
PBMC [18] = experiment: Immunomodulatory activity in human myelin basic protein activated PBMC isolated from multiple sclerosis patient assessed as inhibition of CD25 expression at 10 uM after 6 days by flow cytometric analysis; assay type: functional, cell-based
PBMC [19] = experiment: Immunomodulatory activity in human myelin basic protein activated PBMC isolated from multiple sclerosis patient assessed as inhibition of CD49d expression at 10 uM after 6 days by flow cytometric analysis; assay type: functional, cell-based
PBMC [20] = experiment: Antiinflammatory activity in human myelin basic protein activated PBMC isolated from healthy human assessed as inhibition of phosphorylated Akt expression after 6 days by Western blot analysis; assay type: functional, cell-based
PBMC [21] = experiment: Antiinflammatory activity in human myelin basic protein activated PBMC isolated from healthy human assessed as inhibition of phosphorylated Akt expression at 10 uM after 6 days by Western blot analysis; assay type: functional, cell-based
PBMC [22] = experiment: Antiinflammatory activity in human myelin basic protein activated PBMC isolated from healthy human assessed as inhibition of phosphorylated Cox-2 expression at 10 uM after 6 days by Western blot analysis; assay type: functional, cell-based
[23] = biological target: Cannabinoid receptor 1 (Rattus norvegicus) (UniProt P20272); experiment: Agonist activity at CB1 receptor in rat cerebellar membranes at 3 uM after 90 mins by [35S]-GTPgammaS assay in presence of CB1 antagonist AM251; assay type: functional, cell membranes; details: Cerebellum, Membrane
Cannabinoid receptor 1 [24] = biological target: Cannabinoid receptor 1 (Rattus norvegicus, UniProt P20272); experiment: Agonist activity at CB1 receptor in rat cerebellar membranes after 90 mins by [35S]-GTPgammaS assay; assay type: functional, cell membranes, Cerebellum, Membrane
Chain of Cannabinoid receptor 1 (Rattus norvegicus, UniProt P20272) (P20272 whole entry): as above

[25] = biological target: Cannabinoid receptor 1 (Rattus norvegicus) (UniProt P20272); experiment: Agonist activity at CB1 receptor in rat cerebellar membranes after 90 mins by [35S]-GTPgammaS assay relative to 2-AG; assay type: functional, cell membranes; details: Cerebellum, Membrane
LNCaP [26] = experiment: Cytotoxicity against human LNCAP cells expressing CB2 receptor assessed as decrease in cell viability at 5 uM after 72 hrs by neutral red uptake and accumulation assay in presence of CB2 receptor antagonist MC21 relative to control; assay type: functional, cell-based
PBMC [27] = experiment: Immunomodulatory activity in human myelin basic protein activated PBMC isolated from healthy human assessed as viable cells at 10 uM after 6 days by trypan blue staining-based haemocytometric analysis; assay type: functional; details: 144 h, read-out: Activity
PBMC [28] = experiment: Immunomodulatory activity in human myelin basic protein activated PBMC isolated from multiple sclerosis patient assessed as decrease in cell proliferation at 10 uM after 6 days by trypan blue staining-based haemocytometric analysis relative to control; assay type: functional
PBMC [29] = experiment: Immunomodulatory activity in human myelin basic protein activated PBMC isolated from healthy human assessed as inhibition of CD54 expression at 10 uM after 6 days by flow cytometric analysis; assay type: functional, cell-based
PBMC [30] = experiment: Immunomodulatory activity in human myelin basic protein activated PBMC isolated from healthy human assessed as inhibition of CD69 expression at 10 uM after 6 days by flow cytometric analysis; assay type: functional, cell-based
PBMC [31] = experiment: Immunomodulatory activity in human myelin basic protein activated PBMC isolated from healthy human assessed as inhibition of CD25 expression at 10 uM after 6 days by flow cytometric analysis; assay type: functional, cell-based
PBMC [32] = experiment: Immunomodulatory activity in human myelin basic protein activated PBMC isolated from healthy human assessed as inhibition of CD62 expression at 10 uM after 6 days by flow cytometric analysis; assay type: functional, cell-based
PBMC [33] = experiment: Immunomodulatory activity in human myelin basic protein activated PBMC isolated from healthy human assessed as inhibition of CD49d expression at 10 uM after 6 days by flow cytometric analysis; assay type: functional, cell-based

CC1CCC(NC(=O)c2cc3ccccc3n(Cc3ccc(F)cc3)c2=O)CC1 (configuration not stated)
pKi (Cannabinoid receptor 1 [1]): 7.71
pKi (Cannabinoid receptor 2 [2]): 9.12
Ratio Ki (Homo sapiens): 27.7

CC1CCC(NC(=O)c2cc3ccccc3n(CCCO)c2=O)CC1 (configuration not stated)
pKi (Cannabinoid receptor 1 [1]): 5.42
pKi (Cannabinoid receptor 2 [2]): 7.44
Ratio Ki (Homo sapiens): 104

CC1CCC(NC(=O)c2c(O)c3cccnc3n(CCCO)c2=O)CC1 (configuration not stated)
pKi (Cannabinoid receptor 1 [1]): < 5.00
pKi (Cannabinoid receptor 2 [2]): 6.67
Ratio Ki (Homo sapiens): > 4.6

CCCCn1c(=O)c(C(=O)NC2CCC(C)CC2)c(O)c2cccnc21 (configuration not stated)
pKi (Cannabinoid receptor 1 [1]): 6.15
pKi (Cannabinoid receptor 2 [2]): 7.95
Ratio Ki (Homo sapiens): 62

CCCCn1c(=O)c(C(=O)NC2CCC(C)CC2)cc2ccccc21 (configuration not stated)
pKi (Cannabinoid receptor 1 [1]): 6.26
pKi (Cannabinoid receptor 2 [2]): 7.70
Ratio Ki (Homo sapiens): 28

CCCCCCC(C)(C)c1cc(O)c2c(c1)OC(C)(C)[C@@H]1CC=C(CO)C[C@@H]21
Emax (Cannabinoid receptor 2 [3]): 290%

CC1CCC(NC(=O)c2c(O)c3cccnc3n(Cc3ccc(F)cc3)c2=O)CC1 (configuration not stated)
inhibition (PBMC [4]): Dose-dependent effect
inhibition (PBMC [5]): Active
inhibition (PBMC [6]): Active
pKi (Cannabinoid receptor 1 [1]): 6.86
pKi (Cannabinoid receptor 2 [2]): 9.12
pEC50 (Cannabinoid receptor 2 [3]): 8.50
Emax (Cannabinoid receptor 2 [3]): 216%
Activity (CHO): inactive
Activity [7]: inactive
pIC50 (LNCaP [8]): 5.68
Activity (LNCaP [9]): inactive
Activity (PBMC [10]): Dose-dependent effect
Activity (PBMC [11]): Dose-dependent effect
inhibition (PBMC [12]): Dose-dependent effect
inhibition (PBMC [13]): Dose-dependent effect
inhibition (PBMC [14]): Dose-dependent effect
inhibition (PBMC [15]): Dose-dependent effect
inhibition (PBMC [16]): Dose-dependent effect
inhibition (PBMC [17]): Active
inhibition (PBMC [18]): Active
inhibition (PBMC [19]): Active
inhibition (PBMC [20]): Dose-dependent effect

CCCC(C)(C)c1ccc2c(c1)OC(C)(C)[C@@H]1CC=C(C)C[C@@H]21
pIC50 (LNCaP [8]): 4.93

CCCCCn1c(=O)c(C(=O)NC2CCC(C)CC2)cc2ccccc21 (configuration not stated)
inhibition (PBMC [21]): Active
inhibition (PBMC [22]): Active
pKi (Cannabinoid receptor 1 [1]): 6.64
pKi (Cannabinoid receptor 2 [2]): 8.82
pEC50 (Cannabinoid receptor 2 [3]): 8.70
Emax (Cannabinoid receptor 2 [3]): 280%
Activity [23]: inactive
Activity (CHO): inactive
pEC50 (Cannabinoid receptor 1 [24]): 5.60
Emax [25]: 230%
pIC50 (LNCaP [8]): 5.41
Activity (LNCaP [26]): inactive
viability at 10 µM (PBMC [27]): 71.5%
Activity (PBMC [28]): Active
inhibition (PBMC [29]): inactive
inhibition (PBMC [30]): Active
inhibition (PBMC [31]): Active
inhibition (PBMC [32]): inactive
inhibition (PBMC [33]): inactive

CC1CCC(NC(=O)c2cc3ccccc3n(CCN3CCOCC3)c2=O)CC1 (configuration not stated)
pKi (Cannabinoid receptor 1 [1]): 6.10
pKi (Cannabinoid receptor 2 [2]): 8.38
Ratio Ki (Homo sapiens): 190

CC1CCC(NC(=O)c2c(O)c3cccnc3n(CCN3CCOCC3)c2=O)CC1 (configuration not stated)
pKi (Cannabinoid receptor 1 [1]): 6.20
pKi (Cannabinoid receptor 2 [2]): 8.13
Ratio Ki (Homo sapiens): 85

CCCn1c(=O)c(C(=O)NC2CCC(C)CC2)cc2ccccc21 (configuration not stated)
pKi (Cannabinoid receptor 1 [1]): 5.58
pKi (Cannabinoid receptor 2 [2]): 7.60
Ratio Ki (Homo sapiens): 102
